Experimental data taken from patent US20200368235A1, “IBRUTINIB COMBINATION THERAPY” (Pharmacyclics LLC, priority 2013, published 2020).

Legend:
Format in all cases: cell-based
[1] = system: 17 Diffuse Large B Cell Lymphoma (DLBCL) cell lines; assay: High throughput screen of ibrutinib combinations, growth inhibition by ATP-lite at 72h; details: for synergy in combination with JNJ-02 (ibrutinib): synergy score heat map across DLBCL cell lines
Description: (§1) A high throughput screen of 17 Diffuse Large B Cell Lymphoma (DLBCL) cell lines was conducted for their response to Ibrutinib in combination with 99 anti-cancer agents selected from among standard-of-care and emerging therapeutics and targeted agents. The goal of the project was to identify and quantify specific synergies with Ibrutinib to identify pathways that contribute to clinical response. Examples of therapeutics tested included first-line DLBCL therapeutics: RCHOP (Rituximab, Cyclophosphamide, Doxorubicin, Vincristine, Prednisone) or EPOCH (+Etoposide) and Second-line therapeutics: Dexamethasone, Prednisone, Etoposide, Vincristine, Gemcitabine, Carboplatin, Ifosfamide, Bendamustine, Cyclophosphamide, Rituximab, Lenalidomide, and Anthracycline.
(§2) The 17 DLBCL cell lines tested were DB, DOHH-2, HBL-1, HT, NU-DHL-1, OCI-Lyl, OCI-Ly10, OCI-Ly18, OCI-Ly19, OCI-Ly3, OCI-Ly7, Pfeiffer, SU-DHL-5, SU-DHL-6, SU-DHL-8, TMD8 and Toledo. Eight of the cell lines were screened in human MSC-conditioned medium (hMSC-CM) and nine of the cell lines were screened with hMSC-CM+1 ug/ml each of anti-IgM and anti-IgG. The assay was performed in a 384-well format (6×6 HFDR format) with intra-plate replicates (Ibrutinib n=4; enhancers n=2; combination n=1), inter-plate replicates (n=3) and 20 self-crosses. The dose-response matrix screening was designed to detect both types of multi-target interaction, potency shifts or efficacy boosts.
(§3) The cells were seeded 24h before dosing. Cells were dosed with ibrutinib (JNJ-02) and the test compounds at varying concentrations as depicted in FIGS. 18-39G. At T0 (0h after dosing) and T72 (72h after dosing) ATP-lite raw values were obtained. Growth inhibition of the cell culture was measured as follows:
(§4) Measure untreated at time 0 (V0) (the time at which drugs are added), treated (T) and untreated (V) (at assay end point (72h).
(§5) 100% (Total growth inhibition)—treatment viability signal and 0h vehicle viability signal are matched. (T=V0)
(§6) 200% (complete kill)—treatment viability signal is 0. (T=0)
(§7) The growth inhibition measure is sensitive to the cell doubling time (e.g., it measures the fraction of (net) growth inhibition during the assay period). Growth inhibition gives additional valuable information. For example, 0%-100% (growth inhibition) represents % reduction in net increase in the cells with vehicle during drug incubation period, 100% represents no net increase in viability signal at T72 and T0) (i.e., cytostatic) and 100%-200% (killing zone) represents cytotoxic effects.

TMD8 cell line = assay: High throughput combination screen, growth inhibition (ATP-lite)
Description: as §1, §2, §3, §4, §5, §6, §7

OCI-Ly18 cell line = assay: as above
Description: as §1, §2, §3, §4, §5, §6, §7

DOHH-2 cell line = assay: as above
Description: as §1, §2, §3, §4, §5, §6, §7

CN(C)CC[C@H](CSc1ccccc1)Nc1ccc(S(=O)(=O)NC(=O)c2ccc(N3CCN(Cc4ccccc4-c4ccc(Cl)cc4)CC3)cc2)cc1[N+](=O)[O-] [ABT-737]
synergy in combination with JNJ-02 (ibrutinib) [1]: strong synergy and good breadth of activity

CC(C)c1c(C(=O)Nc2ccccc2)c(-c2ccccc2)c(-c2ccc(F)cc2)n1CC[C@@H](O)C[C@@H](O)CC(=O)O [Atrovastatin]
synergy in combination with JNJ-02 (ibrutinib) [1]: synergizes

CCOC(=O)C1=C(N)Oc2ccc(Br)cc2C1C(C#N)C(=O)OCC (stereo not drawn) [HA14-1]
synergy in combination with JNJ-02 (ibrutinib) [1]: modest synergy in selected cell lines

O=C(c1ccc(Nc2nccc(-c3cc4ccccc4s3)n2)cc1)N1CCC(N2CCCC2)CC1 [IKK inhibitor VII]
synergy in combination with JNJ-02 (ibrutinib) [1]: strong synergy and good breadth of activity

Nc1cccc2c1CN(C1CCC(=O)NC1=O)C2=O (stereo not drawn) [Lenalidomide]
activity as a single agent ([1]; single agent, cell line not given): not active as a single agent
synergy in combination with JNJ-02 (ibrutinib) [1]: synergized
synergy with JNJ-02 (ibrutinib) (TMD8 cell line; combination with ibrutinib): synergizes
activity as a single agent (TMD8 cell line; single agent): not active as a single agent
synergy with JNJ-02 (ibrutinib) (OCI-Ly18 cell line; combination with ibrutinib): does not show synergy
activity as a single agent (OCI-Ly18 cell line; single agent): active as a single agent
synergy with JNJ-02 (ibrutinib) (DOHH-2 cell line; combination with ibrutinib): does not show synergy
activity as a single agent (DOHH-2 cell line; single agent): active as a single agent

C[C@]12C=CC(=O)C=C1CC[C@@H]1[C@@H]2[C@@H](O)C[C@@]2(C)[C@H]1CC[C@]2(O)C(=O)CO [prednisolone]
synergy in combination with JNJ-02 (ibrutinib) [1]: strong synergy and good breadth of activity

rituximab
synergy in combination with JNJ-02 (ibrutinib) [1]: Synergy is observed

B1: siltuximab (antibody, chains of the INN, looked up, V domains shown)
VH: EVQLVESGGKLLKPGGSLKLSCAASGFTFSSFAMSWFRQSPEKRLEWVAEISSGGSYTYYPDTVTGRFTISRDNAKNTLYLEMSSLRSEDTAMYYCARGLWGYYALDYWGQGTSVTVSS
VL: QIVLIQSPAIMSASPGEKVTMTCSASSSVSYMYWYQQKPGSSPRLLIYDTSNLASGVPVRFSGSGSGTSYSLTISRMEAEDAATYYCQQWSGYPYTFGGGTKLEIK
synergy in combination with JNJ-02 (ibrutinib) [1]: not
